The molecules below were run against T1, Complement C1s subcomponent (Homo sapiens, UniProt P09871) (assay: Inhibition of C1S).
T1 sequence (P09871 whole entry): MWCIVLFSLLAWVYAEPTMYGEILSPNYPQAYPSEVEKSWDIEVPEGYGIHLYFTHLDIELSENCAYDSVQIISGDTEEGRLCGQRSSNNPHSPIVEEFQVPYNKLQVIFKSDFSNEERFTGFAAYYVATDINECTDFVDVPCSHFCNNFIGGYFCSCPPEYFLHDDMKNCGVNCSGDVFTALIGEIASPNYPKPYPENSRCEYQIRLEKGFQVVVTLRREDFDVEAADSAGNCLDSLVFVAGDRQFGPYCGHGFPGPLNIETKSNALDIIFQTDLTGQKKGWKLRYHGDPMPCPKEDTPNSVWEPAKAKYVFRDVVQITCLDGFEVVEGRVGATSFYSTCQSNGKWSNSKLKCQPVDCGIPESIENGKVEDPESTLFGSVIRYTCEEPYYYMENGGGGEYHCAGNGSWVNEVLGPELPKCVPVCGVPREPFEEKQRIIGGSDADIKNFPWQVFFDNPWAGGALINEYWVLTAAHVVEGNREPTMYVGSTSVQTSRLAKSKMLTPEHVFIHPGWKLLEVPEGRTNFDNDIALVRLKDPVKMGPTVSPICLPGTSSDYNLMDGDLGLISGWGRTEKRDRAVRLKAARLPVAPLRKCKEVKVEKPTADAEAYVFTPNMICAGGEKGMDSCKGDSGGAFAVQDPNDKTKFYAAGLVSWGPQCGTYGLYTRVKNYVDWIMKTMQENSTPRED

Point of comparison: `CSc1sc(C(=N)N)cc1S(=O)(=O)c1cc(Br)c2ncn(CC=C(C)C)c2c1`, Ki 200 nM. Against it:
- CSc1sc(C(=N)N)cc1S(=O)(=O)c1nccn1C — 9.4-fold higher, 1880 nM
- CSc1sc(C(=N)N)cc1S(=O)(=O)Cc1ccccc1 — 10-fold higher, 2000 nM
- CSc1sc(C(=N)N)cc1S(=O)(=O)c1cc(Br)c2c(c1)ncn2-c1ccccc1 — 1.6-fold higher, 310 nM
- C=CCn1cnc2c(Br)cc(S(=O)(=O)c3cc(C(=N)N)sc3SC)cc21 — within 1.5-fold, 210 nM
- CSc1sc(C(=N)N)cc1S(=O)(=O)c1cc(Br)c2c(c1)ncn2[C@H](C)c1ccccc1 — 1.9-fold higher, 380 nM
- CSc1sc(C(=N)N)cc1S(=O)(=O)c1cc(Br)c2ncn(C)c2c1 — 1.6-fold higher, 330 nM
- CSc1sc(C(=N)N)cc1S(=O)(=O)c1cc(Cl)c2ncn(Cc3c(F)cccc3F)c2c1 — 2-fold lower, 100 nM
- C=CCn1cnc2cc(S(=O)(=O)c3cc(C(=N)N)sc3SC)cc(Br)c21 — 2.9-fold lower, 70 nM
- CSc1sc(C(=N)N)cc1S(=O)(=O)c1ccccc1 — 3.8-fold higher, 750 nM
- CSc1sc(C(=N)N)cc1S(=O)(=O)c1cc(Br)c2ncn(Cc3c(Cl)cccc3Cl)c2c1 — within 1.5-fold, 160 nM
- CSc1sc(C(=N)N)cc1S(=O)(=O)c1cc(Br)c2c(c1)ncn2CC=C(C)C — 4-fold lower, 50 nM
- CSc1sc(C(=N)N)cc1S(=O)(=O)c1cc(Br)c2c(c1)ncn2Cc1cc(F)ccc1F — 20-fold lower, 10 nM
- CSc1sc(C(=N)N)cc1S(=O)(=O)c1ccc2c(c1)ncn2Cc1ccccc1 — 2-fold higher, 400 nM
- CSc1sc(C(=N)N)cc1S(=O)(=O)c1cc(Br)c2c(c1)ncn2Cc1ccccc1 — 6.7-fold lower, 30 nM
- CSc1sc(C(=N)N)cc1S(=O)(=O)c1cc(Br)c2c(c1)ncn2C — 2-fold higher, 400 nM
- CSc1sc(C(=N)N)cc1S(=O)(=O)c1cc(Br)c2c(c1)ncn2[C@@H](C)c1ccccc1 — 1.6-fold higher, 330 nM
- CSc1sc(C(=N)N)cc1S(=O)(=O)c1cc(Br)c2ncn(Cc3cc(F)ccc3F)c2c1 — within 1.5-fold, 240 nM
- CSc1sc(C(=N)N)cc1S(=O)(=O)c1cccs1 — 11-fold higher, 2240 nM
- CSc1sc(C(=N)N)cc1S(=O)(=O)c1ccc2ccccc2c1 — 2-fold higher, 410 nM
- CSc1sc(C(=N)N)cc1S(=O)(=O)c1ccc2c(c1)ncn2Cc1ccccn1 — 2.9-fold higher, 580 nM
- CSc1sc(C(=N)N)cc1S(=O)(=O)c1cc(Br)c2ncn(Cc3cc([N+](=O)[O-])ccc3F)c2c1 — within 1.5-fold, 170 nM
- CSc1sc(C(=N)N)cc1S(=O)(=O)c1cc(Br)c2ncn(Cc3c(F)cccc3F)c2c1 — within 1.5-fold, 170 nM
- CSc1sc(C(=N)N)cc1S(=O)(=O)c1cc(Cl)c2c(c1)ncn2Cc1c(F)cccc1F — 2-fold lower, 100 nM
- CSc1sc(C(=N)N)cc1S(=O)(=O)c1cc(Br)c2nc[nH]c2c1 — 2-fold higher, 400 nM
- CSc1sc(C(=N)N)cc1S(=O)(=O)c1ccc2ncn(Cc3ccccc3)c2c1 — 2.1-fold higher, 420 nM
- CSc1sc(C(=N)N)cc1S(=O)(=O)c1ccccn1 — 11-fold higher, 2290 nM
- CSc1sc(C(=N)N)cc1S(=O)(=O)c1cc(Br)c2c(c1)ncn2Cc1c(F)cccc1F — 5-fold lower, 40 nM
- CSc1sc(C(=N)N)cc1S(=O)(=O)c1ccoc1C — 8.9-fold higher, 1790 nM
- CSc1sc(C(=N)N)cc1S(=O)(=O)c1cc(Br)c2c(c1)ncn2Cc1cc([N+](=O)[O-])ccc1F — 6.7-fold lower, 30 nM
- CSc1sc(C(=N)N)cc1S(=O)(=O)c1cc(Br)c2ncn(-c3ccccc3)c2c1 — within 1.5-fold, 180 nM
- CSc1sc(C(=N)N)cc1S(=O)(=O)C(C)C — 55-fold higher, 11000 nM
- CSc1sc(C(=N)N)cc1S(=O)(=O)c1cc(Br)c2ncn(Cc3ccccc3)c2c1 — 2-fold higher, 400 nM
- CSc1sc(C(=N)N)cc1S(=O)(=O)c1cc(Br)c2c(c1)ncn2Cc1c(Cl)cccc1Cl — 10-fold lower, 20 nM

The molecules below were run against Trypsin (Homo sapiens, UniProt P07477+P07478+P35030) (assay: Inhibition of trypsin).
Type: protein assay

For `CSc1sc(C(=N)N)cc1S(=O)(=O)c1cc(Br)c2c(c1)ncn2Cc1cc(F)ccc1F`, the Ki was 1400 nM.

These molecules were tested against Prothrombin (Homo sapiens, UniProt P00734) (assay: Inhibition of thrombin).

Molecule `CSc1sc(C(=N)N)cc1S(=O)(=O)c1cc(Br)c2c(c1)ncn2Cc1cc(F)ccc1F` has a Ki greater than 15000 nM.

Each molecule was assayed against Tissue-type plasminogen activator (Homo sapiens, UniProt P00750) (assay: Inhibition of tPA).
Tissue-type plasminogen activator, sequence (P00750 whole entry): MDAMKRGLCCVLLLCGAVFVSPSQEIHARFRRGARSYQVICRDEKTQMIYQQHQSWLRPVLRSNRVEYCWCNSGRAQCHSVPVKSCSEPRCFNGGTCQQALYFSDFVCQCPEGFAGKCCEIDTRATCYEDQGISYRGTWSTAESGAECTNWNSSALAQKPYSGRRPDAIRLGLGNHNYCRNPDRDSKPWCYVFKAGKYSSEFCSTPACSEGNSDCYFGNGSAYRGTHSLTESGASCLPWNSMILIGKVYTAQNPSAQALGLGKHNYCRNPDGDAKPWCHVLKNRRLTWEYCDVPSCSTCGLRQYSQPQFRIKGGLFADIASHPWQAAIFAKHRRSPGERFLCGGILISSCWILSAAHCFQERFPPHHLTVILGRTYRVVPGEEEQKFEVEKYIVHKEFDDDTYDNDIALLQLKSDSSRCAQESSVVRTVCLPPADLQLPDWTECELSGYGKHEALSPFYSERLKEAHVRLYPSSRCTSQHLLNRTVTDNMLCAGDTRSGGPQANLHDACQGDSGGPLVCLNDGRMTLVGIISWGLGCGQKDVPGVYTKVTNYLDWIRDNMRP

In the case of `CSc1sc(C(=N)N)cc1S(=O)(=O)c1cc(Br)c2c(c1)ncn2Cc1cc(F)ccc1F`, the Ki is reported as greater than 10000 nM.

Each molecule was assayed against Urokinase-type plasminogen activator (Homo sapiens, UniProt P00749) (assay: Inhibition of uPA).

For `CSc1sc(C(=N)N)cc1S(=O)(=O)c1cc(Br)c2c(c1)ncn2Cc1cc(F)ccc1F`, the Ki was greater than 10000 nM.

The molecules below were run against Coagulation factor X (Homo sapiens, UniProt P00742) (assay: Inhibition of F10a).
Coagulation factor X, sequence (P00742 41-179 limits assumed): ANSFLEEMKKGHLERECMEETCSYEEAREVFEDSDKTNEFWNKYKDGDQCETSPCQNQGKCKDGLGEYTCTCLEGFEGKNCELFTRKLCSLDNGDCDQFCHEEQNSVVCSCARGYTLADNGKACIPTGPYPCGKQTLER
Coagulation factor X, sequence (P00742 235-488 limits assumed): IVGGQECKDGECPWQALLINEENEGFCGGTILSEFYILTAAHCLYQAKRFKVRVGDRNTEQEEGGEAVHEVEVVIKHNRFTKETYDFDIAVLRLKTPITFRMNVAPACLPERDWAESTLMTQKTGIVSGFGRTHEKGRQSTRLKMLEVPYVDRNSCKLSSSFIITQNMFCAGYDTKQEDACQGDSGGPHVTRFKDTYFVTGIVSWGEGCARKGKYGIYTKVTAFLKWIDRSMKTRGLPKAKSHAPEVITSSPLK

`CSc1sc(C(=N)N)cc1S(=O)(=O)c1cc(Br)c2c(c1)ncn2Cc1cc(F)ccc1F` was tested, and the Ki was 11400 nM.

What follows are molecules tested against Plasminogen (Homo sapiens, UniProt P00747) (assay: Inhibition of plasmin).
Plasminogen, sequence (P00747 97-580 limits assumed): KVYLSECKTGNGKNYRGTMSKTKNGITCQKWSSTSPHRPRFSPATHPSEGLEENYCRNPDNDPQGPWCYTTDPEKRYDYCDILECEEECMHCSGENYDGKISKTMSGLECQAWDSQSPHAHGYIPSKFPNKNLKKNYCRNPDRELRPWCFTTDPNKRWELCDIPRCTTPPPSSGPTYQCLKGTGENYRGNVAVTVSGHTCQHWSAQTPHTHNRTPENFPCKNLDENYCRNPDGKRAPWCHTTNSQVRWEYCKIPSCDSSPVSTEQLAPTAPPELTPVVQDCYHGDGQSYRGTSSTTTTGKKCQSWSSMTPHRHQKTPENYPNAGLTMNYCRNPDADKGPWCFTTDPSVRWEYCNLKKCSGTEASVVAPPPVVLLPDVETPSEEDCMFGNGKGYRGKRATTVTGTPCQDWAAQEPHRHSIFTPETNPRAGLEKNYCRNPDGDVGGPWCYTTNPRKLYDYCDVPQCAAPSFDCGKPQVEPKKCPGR
Plasminogen, sequence (P00747 581-810 limits assumed): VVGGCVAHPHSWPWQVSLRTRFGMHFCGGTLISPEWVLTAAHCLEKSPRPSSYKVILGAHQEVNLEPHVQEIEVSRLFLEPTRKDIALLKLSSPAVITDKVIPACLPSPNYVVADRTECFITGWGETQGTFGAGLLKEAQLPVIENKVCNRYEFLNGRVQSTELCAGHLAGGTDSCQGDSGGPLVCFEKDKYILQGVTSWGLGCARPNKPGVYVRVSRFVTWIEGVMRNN

`CSc1sc(C(=N)N)cc1S(=O)(=O)c1cc(Br)c2c(c1)ncn2Cc1cc(F)ccc1F` showed a Ki greater than 13000 nM.

From ChEMBL document CHEMBL1146955, “A novel series of arylsulfonylthiophene-2-carboxamidine inhibitors of the complement component C1s” (Bioorg Med Chem Lett, 2006)
